{
  "source": "patent US8747810B2",
  "about": "“Compositions and methods for imaging tissues, organs and tumors” (President and Fellows of Harvard College, priority 2009, dated 2014)",
  "test_system": "B16F10 melanoma tumors",
  "test": "In vivo biodistribution of 99mTc complexes in C57B16 mice bearing B16F10 melanoma tumors",
  "settings": "for mel/blood: melanoma/blood ratio; for mel/liver: melanoma/liver ratio; for mel/lung: melanoma/lung ratio; for mel/spleen: melanoma/spleen ratio",
  "description": "To study the tumor uptake of ^99mTc complexes, ^99mTc-Z2-^99mTc-Z4, in vivo biodistribution experiment at 1, 3, 6 hours post intra-venous injection of the ^99mTc-complex were carried out in C57B16 mice bearing B16F10 melanoma tumors. The biodistribution data including melanoma/nontumor (M/NT) ratios for selected organs are summarized in Table 2 as percentage injected dose per gram (% ID/g) (Table 2). […] This is due to washout from no-tumor organs and increased retention in the tumor.",
  "data": [
    {"smiles": "O=C1C[S][99Tc-]23(=[O])[S]CC[N+]2(CCCN2CCCCC2)CC[N]13", "note": "(stereo not shown) [Tc-Z4]", "values": [
      {"measurement": "Eyes", "setting": "1 h postinjection", "result": "6.72 ± 0.77", "unit": "% ID/g"},
      {"measurement": "blood", "setting": "1 h postinjection", "result": "0.33 ± 0.03", "unit": "% ID/g"},
      {"measurement": "brain", "setting": "1 h postinjection", "result": "0.16 ± 0.01", "unit": "% ID/g"},
      {"measurement": "heart", "setting": "1 h postinjection", "result": "0.59 ± 0.07", "unit": "% ID/g"},
      {"measurement": "kidney", "setting": "1 h postinjection", "result": "2.50 ± 0.32", "unit": "% ID/g"},
      {"measurement": "liver", "setting": "1 h postinjection", "result": "20.32 ± 1.0", "unit": "% ID/g"},
      {"measurement": "lung", "setting": "1 h postinjection", "result": "2.37 ± 0.17", "unit": "% ID/g"},
      {"measurement": "melanoma (tumor uptake)", "setting": "1 h postinjection", "result": "3.43 ± 0.70", "unit": "% ID/g"},
      {"measurement": "muscle", "setting": "1 h postinjection", "result": "0.63 ± 0.17", "unit": "% ID/g"},
      {"measurement": "spleen", "setting": "1 h postinjection", "result": "1.37 ± 0.19", "unit": "% ID/g"},
      {"measurement": "mel/blood", "setting": "1 h postinjection", "result": "10.50 ± 1.9"},
      {"measurement": "mel/liver", "setting": "1 h postinjection", "result": "0.17 ± 0.03"},
      {"measurement": "mel/lung", "setting": "1 h postinjection", "result": "1.45 ± 0.30"},
      {"measurement": "mel/spleen", "setting": "1 h postinjection", "result": "2.49 ± 0.24"},
      {"measurement": "Eyes", "setting": "3 h postinjection", "result": "7.19 ± 1.40", "unit": "% ID/g"},
      {"measurement": "blood", "setting": "3 h postinjection", "result": "0.34 ± 0.09", "unit": "% ID/g"},
      {"measurement": "brain", "setting": "3 h postinjection", "result": "0.18 ± 0.04", "unit": "% ID/g"},
      {"measurement": "heart", "setting": "3 h postinjection", "result": "0.63 ± 0.07", "unit": "% ID/g"},
      {"measurement": "kidney", "setting": "3 h postinjection", "result": "2.73 ± 0.76", "unit": "% ID/g"},
      {"measurement": "liver", "setting": "3 h postinjection", "result": "16.67 ± 3.8", "unit": "% ID/g"},
      {"measurement": "lung", "setting": "3 h postinjection", "result": "2.36 ± 0.54", "unit": "% ID/g"},
      {"measurement": "melanoma (tumor uptake)", "setting": "3 h postinjection", "result": "3.59 ± 1.76", "unit": "% ID/g"},
      {"measurement": "muscle", "setting": "3 h postinjection", "result": "0.70 ± 0.52", "unit": "% ID/g"},
      {"measurement": "spleen", "setting": "3 h postinjection", "result": "1.22 ± 0.42", "unit": "% ID/g"},
      {"measurement": "mel/blood", "setting": "3 h postinjection", "result": "9.22 ± 4.93"},
      {"measurement": "mel/liver", "setting": "3 h postinjection", "result": "0.15 ± 0.09"},
      {"measurement": "mel/lung", "setting": "3 h postinjection", "result": "1.30 ± 0.67"},
      {"measurement": "mel/spleen", "setting": "3 h postinjection", "result": "2.57 ± 1.21"},
      {"measurement": "Eyes", "setting": "6 h postinjection", "result": "7.01 ± 0.41", "unit": "% ID/g"},
      {"measurement": "blood", "setting": "6 h postinjection", "result": "0.14 ± 0.03", "unit": "% ID/g"},
      {"measurement": "brain", "setting": "6 h postinjection", "result": "0.02 ± 0.01", "unit": "% ID/g"},
      {"measurement": "heart", "setting": "6 h postinjection", "result": "0.25 ± 0.06", "unit": "% ID/g"},
      {"measurement": "kidney", "setting": "6 h postinjection", "result": "1.07 ± 0.17", "unit": "% ID/g"},
      {"measurement": "liver", "setting": "6 h postinjection", "result": "12.9 ± 1.72", "unit": "% ID/g"},
      {"measurement": "lung", "setting": "6 h postinjection", "result": "0.91 ± 0.24", "unit": "% ID/g"},
      {"measurement": "melanoma (tumor uptake)", "setting": "6 h postinjection", "result": "3.52 ± 0.88", "unit": "% ID/g"},
      {"measurement": "muscle", "setting": "6 h postinjection", "result": "0.09 ± 0.02", "unit": "% ID/g"},
      {"measurement": "spleen", "setting": "6 h postinjection", "result": "0.58 ± 0.20", "unit": "% ID/g"},
      {"measurement": "mel/blood", "setting": "6 h postinjection", "result": "24.95 ± 4.6"},
      {"measurement": "mel/liver", "setting": "6 h postinjection", "result": "0.28 ± 0.08"},
      {"measurement": "mel/lung", "setting": "6 h postinjection", "result": "3.99 ± 1.10"},
      {"measurement": "mel/spleen", "setting": "6 h postinjection", "result": "6.44 ± 2.12"}
    ]},
    {"smiles": "O=C1C[S][99Tc-]23(=[O])[S]CC[N+]2(CCCN2CCOCC2)CC[N]13", "note": "(stereo not shown) [Tc-Z3]", "values": [
      {"measurement": "Eyes", "setting": "1 h postinjection", "result": "4.85 ± 0.63", "unit": "% ID/g"},
      {"measurement": "blood", "setting": "1 h postinjection", "result": "0.35 ± 0.11", "unit": "% ID/g"},
      {"measurement": "brain", "setting": "1 h postinjection", "result": "0.08 ± 0.02", "unit": "% ID/g"},
      {"measurement": "heart", "setting": "1 h postinjection", "result": "0.49 ± 0.11", "unit": "% ID/g"},
      {"measurement": "kidney", "setting": "1 h postinjection", "result": "2.62 ± 1.50", "unit": "% ID/g"},
      {"measurement": "liver", "setting": "1 h postinjection", "result": "17.75 ± 2.56", "unit": "% ID/g"},
      {"measurement": "lung", "setting": "1 h postinjection", "result": "2.08 ± 0.60", "unit": "% ID/g"},
      {"measurement": "melanoma (tumor uptake)", "setting": "1 h postinjection", "result": "2.36 ± 0.25", "unit": "% ID/g"},
      {"measurement": "muscle", "setting": "1 h postinjection", "result": "0.38 ± 0.11", "unit": "% ID/g"},
      {"measurement": "spleen", "setting": "1 h postinjection", "result": "3.19 ± 1.05", "unit": "% ID/g"},
      {"measurement": "mel/blood", "setting": "1 h postinjection", "result": "7.49 ± 2.79"},
      {"measurement": "mel/liver", "setting": "1 h postinjection", "result": "0.14 ± 0.03"},
      {"measurement": "mel/lung", "setting": "1 h postinjection", "result": "1.26 ± 0.57"},
      {"measurement": "mel/spleen", "setting": "1 h postinjection", "result": "0.85 ± 0.44"},
      {"measurement": "Eyes", "setting": "3 h postinjection", "result": "4.72 ± 0.62", "unit": "% ID/g"},
      {"measurement": "blood", "setting": "3 h postinjection", "result": "0.10 ± 0.02", "unit": "% ID/g"},
      {"measurement": "brain", "setting": "3 h postinjection", "result": "0.01 ± 0.00", "unit": "% ID/g"},
      {"measurement": "heart", "setting": "3 h postinjection", "result": "0.14 ± 0.02", "unit": "% ID/g"},
      {"measurement": "kidney", "setting": "3 h postinjection", "result": "1.02 ± 0.13", "unit": "% ID/g"},
      {"measurement": "liver", "setting": "3 h postinjection", "result": "12.58 ± 1.4", "unit": "% ID/g"},
      {"measurement": "lung", "setting": "3 h postinjection", "result": "0.87 ± 0.35", "unit": "% ID/g"},
      {"measurement": "melanoma (tumor uptake)", "setting": "3 h postinjection", "result": "2.74 ± 0.24", "unit": "% ID/g"},
      {"measurement": "muscle", "setting": "3 h postinjection", "result": "0.09 ± 0.02", "unit": "% ID/g"},
      {"measurement": "spleen", "setting": "3 h postinjection", "result": "3.16 ± 0.46", "unit": "% ID/g"},
      {"measurement": "mel/blood", "setting": "3 h postinjection", "result": "26.65 ± 4.9"},
      {"measurement": "mel/liver", "setting": "3 h postinjection", "result": "0.22 ± 0.03"},
      {"measurement": "mel/lung", "setting": "3 h postinjection", "result": "3.24 ± 1.79"},
      {"measurement": "mel/spleen", "setting": "3 h postinjection", "result": "0.87 ± 0.17"}
    ]}
  ]
}
